Values of other authors as cited in patent publication US10272040B2, “Liposomal formulation for ocular drug delivery” (Nanyang Technological University, priority 2010, dated 2019).

How the values were obtained:
[1] = other drugs in liposomes
[2] = SRC PhysProp Database

log P [2]	Compound	Drug:Lipid mole ratio, Literature [1]
	N.N.[Cl][Pt][Cl] [cisplatin]	0.05
4.4	CC(C)OC(=O)CCC/C=C\C[C@@H]1[C@@H](CC[C@@H](O)CCc2ccccc2)[C@H](O)C[C@@H]1O [latanoprost]	
